Measurements: PMC12974487, “Inhibition of FicD-mediated AMPylation and deAMPylation by isoprenoid diphosphates” (Proceedings of the National Academy of Sciences of the …, 2026)
Numbering of substitutions follows the chain as printed.

Tests used:
[1] = target: T1, FicD^E234G (Homo sapiens, UniProt Q9BVA6, E234G); assay: MIDAS metabolite screen, FicD^E234G; assay type: binding; conditions: cutoff Q < 0.05 and |Log2 corrected fold change| > 2, metabolites 5 µM
T1 construct: soluble ER luminal domain (residues 105 to 458) of wild-type human FicD and three mutants; 6xHis-Sumo (N, cleaved yes); made in house; host or cells: Rosetta(DE3) E. coli
T1 sequence (Q9BVA6 105-458 E234G): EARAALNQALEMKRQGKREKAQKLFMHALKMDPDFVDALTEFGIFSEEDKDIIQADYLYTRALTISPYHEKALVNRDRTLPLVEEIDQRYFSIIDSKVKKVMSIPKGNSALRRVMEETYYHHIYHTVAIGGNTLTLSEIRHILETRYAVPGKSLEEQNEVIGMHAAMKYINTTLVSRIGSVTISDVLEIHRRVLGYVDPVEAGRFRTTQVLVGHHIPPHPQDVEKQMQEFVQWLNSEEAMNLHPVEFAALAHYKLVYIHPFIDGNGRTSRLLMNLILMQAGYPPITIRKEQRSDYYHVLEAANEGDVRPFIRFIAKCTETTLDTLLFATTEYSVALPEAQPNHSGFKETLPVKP

[2] = target: T2, FicD^L258D (Homo sapiens, UniProt Q9BVA6, L258D); assay: Differential scanning fluorimetry (DSF) thermal shift with FicD^L258D; assay type: binding
T2 construct: soluble ER luminal domain (residues 105 to 458) of wild-type human FicD and three mutants; 6xHis-Sumo (N, cleaved yes); made in house; host or cells: Rosetta(DE3) E. coli
T2 sequence (Q9BVA6 105-458 L258D): T1 sequence (Q9BVA6 105-458 E234G) with G130E, L154D
Protocol: Differential Scanning Fluorimetry
Thermal shift assays were performed in Biorad CfX384 Touch Real-Time PCR Detection System […]
Reactions contained 50mM HEPES pH 7.4, 200mM NaCl, 200mM KCl, 200uM DTT, 5X Invitrogen Sypro Orange (Cat no. S6650), 8-9μM protein, and indicated nucleotide, cofactor, or small molecule in a total volume of 20uL. For every experiment ‘no protein’ controls were also included with the same reaction conditions. All reactions were performed in technical triplicates. Sealed plates containing reaction mixes were centrifuged for 1-5 min at 1000 RPM prior to temperature scanning (FRET channel), which was performed from 6°C […]
DSF data was analyzed with traditional methods automated in a Python package (https://pypi.org/project/instawell/). Briefly, for each temperature, the RFU values of technical triplicates are averaged. For each timepoint, the background fluorescence was subtracted using the RFU values of the ‘no protein’ control. […]
calculated. The melting temperature (Tm) is defined as the first derivative peak value. Data

[3] = target: T3, FicD^WT (Homo sapiens, UniProt Q9BVA6); assay: In vitro deAMPylation of Δ26hBiP^T229A-AMP by FicD^WT (Western blot); assay type: biochemical; conditions: 100 μM metabolite, 5 mM MgCl2
T3 construct: soluble ER luminal domain (residues 105 to 458) of wild-type human FicD; 6xHis-Sumo (N, cleaved yes); made in house; host or cells: Rosetta(DE3) E. coli
T3 sequence (Q9BVA6 105-458): T1 sequence (Q9BVA6 105-458 E234G) with G130E
Source text: (§1) We next sought to assess the effects of FPP, GPP, and isoprenoid analogues on FicD activity. To accurately judge the effects of small molecules on FicD AMPylation activity, we used the ATPase defective BiP^T229A mutant as substrate ([22], [49], [50]). Loss of ATP hydrolysis by the BiP mutant ensures: 1. conformational homogeneity of the BiP protein substrate; 2. lack of BiP competition for the ATP substrate; and 3. no production of ADP, a competitive inhibitor for ATP. In addition, we deleted the first 25 amino acids of BiP for ease with its purification and solubility. […]
For deAMPylation assays with FicD and BiP, Δ26hBiPT229A was in-vitro AMPylated by […]
5mM MgCl2, 500uM ATP, 0.5% CHAPS, 1mM DTT. After one hour of incubation at 30-37C, the entire reaction mix was transferred into an Amicon 0.5mL 50kDa MWCO concentrator (cat no.
7.4/150mM NaCl/10% glycerol/1mM DTT was added to the concentrated AMPylation reaction and then spun down again at 14,000 x g at 4C for 5-10 minutes. This step was repeated four times to buffer exchange AMPylated Δ26hBiPT229A.
Δ104hFicDWT and Δ26hBiPT229A-AMP were combined at a ratio of 1:80 in buffer containing 25mM HEPES pH 7.4, 100mM KCl, 5mM MgCl2, 1mM DTT and the indicated small molecule where applicable. Reactions were incubated at 37C for 1 hour and stopped by the addition EDTA. 5X SDS sample buffer (250mM Tris pH 6.8, 10% Lithium dodecyl sulfate, 50% glycerol, 50mM DTT, 0.05% Bromophenol blue) was then added to the reactions and reactions were heated for 5 minutes at […]

[4] = target: T3, FicD^WT; assay: In vitro AMPylation of Δ26hBiP^T229A by FicD^WT (Western blot); assay type: biochemical; conditions: 100 μM metabolite, 500 μM ATP, 5 mM MgCl2
Source text: as §1
For AMPylation assays with FicD and BiP, Δ104FicDWT and Δ26hBiPT229A were combined at a ratio
of 1:80 in buffer containing 25mM HEPES pH 7.4, 100mM KCl, 5mM MgCl2, 500μM ATP, 1mM
DTT, and small molecule where indicated. Assays with Δ104FicDWT were incubated for 1 hour.
the amount of FicD as in reactions containing FicDWT and were incubated at 37C for 4.5 hours. […]

[5] = target: T2, FicD^L258D; assay: MIDAS metabolite screen, FicD^L258D; assay type: binding; conditions: cutoff Q < 0.05 and |Log2 corrected fold change| > 2, metabolites 5 µM
Source text: To identify small-molecule metabolite interactions with FicD, we applied an unbiased high-throughput screening approach known as MIDAS ([44]). Given the high concentrations of protein required for MIDAS screening, we purified the soluble ER luminal domain (residues 105 to 458) of wild-type human FicD and three mutants FicD^E234G, FicD^L258D, and FicD^H363A for screening (Fig. 1A). These mutants were selected based on their well-established biochemical features ([23], [24], [31]). All three are predicted to enhance detection of protein–metabolite interactions (PMIs) relative to FicD^WT through increased affinity for nucleotide substrates (FicD^E234G), improved solubility (FicD^L258D), and loss of catalytic turnover (FicD^H363A) (Fig. 1A). To decrease the potential for nonspecific small-molecule binding, we ensured the purity of our FicD proteins (SI Appendix, Fig. S1 A and B). As reported by other investigators ([24], [31]), we observe an increase in elution volume of the FicD^L258D mutant, consistent with its monomerization (SI Appendix, Fig. S1C).
Out of the 602 naturally occurring human metabolites in the MIDAS library, we applied a significance cutoff (q value < 0.05) to identify 12 PMIs with a Log2 (corrected fold change) of >2 and two PMIs with a Log2 (corrected fold change) <-2 in the FicD^WT screen (Fig. 1B and SI Appendix, Table S2). Hits were additionally triaged based on detection of multiple adducts of the metabolite in a single dataset (FPP and […] in Fig. 1B) and identification of the same metabolites across three or more of the FicD construct screens (Fig. 1C). Three chemical classes passed this initial triage: adenosine nucleotides, isoprenoid diphosphates, and thyroid hormone intermediates (Fig. 1 B and C and SI Appendix, Tables S2–S5).
22°C. Induced cultures were then harvested by centrifugation at 8000G for 15 minutes at 4°C and […]
Bacterial pellets were resuspended in 30-50mL of 50mM Tris pH 7.4/150mM NaCl/10% glycerol with one Roche cOmplete EDTA-Free Protease inhibitor cocktail tablet (cat no. COEDTAF-RO).
Triton-X100 to a final concentration of 0.2%, Chicken-egg lysozyme to a final concentration of 0.4ug/mL, and 2-5uL of Millipore Benzonase Nuclease (cat no. 70664) were added to bacterial suspension prior to sonication at 40-50% amplitude for 1-3 minutes in pulses of 5 seconds on and 30 seconds off on ice with a Sonics VCX 750 Ultrasonicator. Bacterial lysate was then clarified by centrifugation at 30,000 x g for 30 minutes at 4°C.
Clarified lysate was rotated with Qiagen NiNTA agarose beads (cat no. 30210) for 1-2 hours at 4°C. The beads were then transferred to a 15mL conical vial, resuspended in 10-15mL wash buffer (50mM Tris pH 7.4/150mM NaCl/10% glycerol/0.2% Triton-X 100/10mM imidazole), and spun down at 1000G for 1 minute at 4°C, after which the supernatant was aspirated from the beads. This washing step was repeated 2-4 times to rinse bacterial lysate from the beads prior to on-column washing. The beads were then transferred to BioRad Econopac 20mL bed volume column (cat no.
7321010) and washed with 10-15mL of wash buffer (repeated at least three times), 10mL of ATP wash (50mM Tris pH 7.4/300mM KCl/10mM MgCl2/500uM ATP, repeated once), and finally with 10-15mL wash buffer without Triton-X 100 (repeated at least three times). Protein was eluted in 500μL-1mL elution buffer (50mM Tris pH 7.5/150mM NaCl/10% glycerol/0.5% CHAPS). […]

[6] = target: T3, FicD^WT; assay: MIDAS equilibrium dialysis/mass spectrometry metabolite screen, FicD^WT; assay type: binding; conditions: cutoff Q < 0.05 and |Log2 corrected fold change| > 2, metabolites 5 µM

Structure (SMILES)	MIDAS protein-metabolite interaction (enrichment/depletion) [1]	binding to FicD^L258D by DSF ([2]; absence of MgCl2)	binding to FicD^L258D by DSF ([2]; presence of 5 mM MgCl2)	inhibition of deAMPylation activity of FicD^WT [3]	inhibition of AMPylation of Δ26hBiP^T229A by FicD^WT [4]	MIDAS protein-metabolite interaction (enrichment/depletion) [5]	MIDAS protein-metabolite interaction (enrichment/depletion) [6]	maximal Tm shift at saturating ligand concentration ([2]; FicD^L258D, 5 mM MgCl2)	EC50 ([2]; FicD^L258D, 5 mM MgCl2, read-out: EC50 of DSF dose-response (ΔTm))
CC(C)=CCC/C(C)=C\CC/C(C)=C\COP(=O)(O)O [FMP, farnesyl-monophosphate]			did not bind	did not affect	did not				
CC(C)=CCC/C(C)=C/COP(=O)(O)O [GMP, geranyl-monophosphate]			did not bind	did not affect	did not				
CC(C)=CCC/C(C)=C/CC/C(C)=C/CO [farnesol]			did not bind	did not affect	did not				
CC(C)=CCC/C(C)=C/CO [geraniol]			did not bind	did not affect	did not				
O=CC(=O)O [glyoxylic acid]							significantly depleted		

Second part, the molecule after the results:

MIDAS protein-metabolite interaction (enrichment/depletion) [1]	binding to FicD^L258D by DSF ([2]; absence of MgCl2)	binding to FicD^L258D by DSF ([2]; presence of 5 mM MgCl2)	inhibition of deAMPylation activity of FicD^WT [3]	inhibition of AMPylation of Δ26hBiP^T229A by FicD^WT [4]	MIDAS protein-metabolite interaction (enrichment/depletion) [5]	MIDAS protein-metabolite interaction (enrichment/depletion) [6]	maximal Tm shift at saturating ligand concentration ([2]; FicD^L258D, 5 mM MgCl2)	EC50 ([2]; FicD^L258D, 5 mM MgCl2, read-out: EC50 of DSF dose-response (ΔTm))	Structure (SMILES)
did not pass the significance cutoff	did not bind	did not show saturation							Nc1ncnc2c1ncn2[C@@H]1O[C@H](COP(=O)(O)OP(=O)(O)OP(=O)(O)O)[C@@H](O)[C@H]1O [ATP, adenosine triphosphate]
		did not bind	did not affect	did not					CC(C)=CCOP(=O)(O)OP(=O)(O)O [DMAPP, dimethylallyl-pyrophosphate]
		did not bind	did not affect	did not					CC(O)(CCOP(=O)(O)OP(=O)(O)O)CC(=O)O (centres unmarked) [MVAPP, mevalonate-pyrophosphate]
significantly enriched	did not bind	binding			did not pass the significance cutoff	significantly enriched	~ 7 °C	530 µM	Nc1ncnc2c1ncn2[C@H]1C[C@H](O)[C@@H](COP(=O)(O)OP(=O)(O)OP(=O)(O)O)O1 [dATP]
